Measurements: patent publication US8367873B2, “Phenyl-substituted bicyclooctane-1,3-dione derivatives” (Bayer Cropscience AG, priority 2008, dated 2013)

Assays:
Assay type in all cases: in vivo
[1] = test system: monocotylidonous and dicotylidonous weed and crop plants; assay: Herbicidal pre-emergence action (other test plants); conditions: pre-emergence method, 80 g/ha, greenhouse, visual assessment vs untreated controls
Excerpt: (§1) Seeds of monocotylidonous and dicotylidonous weed and crop plants are placed in sandy loam in wood fibre pots and covered with soil. The test compounds, formulated in the form of wettable powders (WP), are then, as an aqueous suspension with a water application rate of 600 l/ha (converted), with 0.2% of wetting agent added, applied to the surface of the covering soil in different amounts.
(§2) After the treatment, the pots are placed in a greenhouse and kept under good growth conditions for the test plants. The visual assessment of the emergence damage on the test plants is carried out after a trial period of three weeks by comparison with the untreated controls (herbicidal effect in percent: 100% effect=the plants have died, 0% effect=like control plants).

Lolium multiflorum [2] = assay: Herbicidal post-emergence action; conditions: post-emergence method, 80 g/ha
How it was run: (§3)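 Post-emergence spray test: wettable-powder formulations are applied at different amounts to one-leaf-stage plants in 600 l/ha water containing 0.2% wetting agent. After roughly three weeks in the greenhouse, percent effect is rated visually relative to untreated controls.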

Echinocloa crus-galli [3] = assay: Herbicidal post-emergence action; conditions: post-emergence method, 80 g/ha
How it was run: as §3

Alopecurus myosuroides [4] = assay: Herbicidal post-emergence action; conditions: post-emergence method, 80 g/ha
How it was run: as §3

Setaria viridis [5] = assay: Herbicidal post-emergence action; conditions: post-emergence method, 80 g/ha
How it was run: as §3

[6] = test system: monocotylidonous and dicotylidonous weed and crop plants; assay: Herbicidal post-emergence action (other test plants); conditions: post-emergence method, 80 g/ha
How it was run: as §3

Lolium multiflorum [7] = assay: Herbicidal pre-emergence action; conditions: pre-emergence method, 80 g/ha, greenhouse, visual assessment vs untreated controls
Excerpt: as §1, §2

Echinocloa crus-galli [8] = assay: Herbicidal pre-emergence action; conditions: pre-emergence method, 80 g/ha, greenhouse, visual assessment vs untreated controls
Excerpt: as §1, §2

Alopecurus myosuroides [9] = assay: Herbicidal pre-emergence action; conditions: pre-emergence method, 80 g/ha, greenhouse, visual assessment vs untreated controls
Excerpt: as §1, §2

Setaria viridis [10] = assay: Herbicidal pre-emergence action; conditions: pre-emergence method, 80 g/ha, greenhouse, visual assessment vs untreated controls
Excerpt: as §1, §2

Compound	herbicidal effect AVEFA [1] [%]	herbicidal effect against LOLMU (Lolium multiflorum) (Lolium multiflorum [2]) [%]	herbicidal effect against ECHCG (Echinochloa crus-galli) (Echinocloa crus-galli [3]) [%]	herbicidal effect against ALOMY (Alopecurus myosuroides) (Alopecurus myosuroides [4]) [%]	herbicidal effect against SETVI (Setaria viridis) (Setaria viridis [5]) [%]	herbicidal effect against AVEFA (Avena fatua) [6] [%]	herbicidal effect LOLMU (Lolium multiflorum [7]) [%]	herbicidal effect ECHCG (Echinocloa crus-galli [8]) [%]	herbicidal effect ALOMY (Alopecurus myosuroides [9]) [%]	herbicidal effect SETVI (Setaria viridis [10]) [%]
Cc1cc(C)c(C2=C(OC(=O)C(C)C)C3CC4(CC3C2=O)OCCCCO4)c(C)c1 (centres unmarked) [I-b-41]	40	100	100	40	80	0	100	0	50	50
Cc1cc(C)c(C2=C([O-])C3CC4(CC3C2=O)OCC=CCO4)c(C)c1.[Na+] (centres unmarked) [I-f-8]	40	100	100	100	100	90	100	0	30	70
CCc1cc(C)cc(CC)c1C1=C(O)[C@H]2CC3(C[C@H]2C1=O)OCC(C)(C)CO3 (relative stereo) [I-a-9]	70	90	100	60	90	60	100	100	90	90
CCOC(=O)OC1=C(c2c(CC)cc(C)cc2CC)C(=O)C2CC3(CC12)OCC(C)(C)CO3 (racemic) [I-c-6]	10						80	90	50	60
CCOC(=O)OC1=C(c2c(C)cc(C)cc2CC)C(=O)C2CC3(CC12)OCCO3 (racemic) [I-c-71]	70	100		80	100	90	100	100	70	90
CCc1cc(C)cc(CC)c1C1=C(OC(=O)OC)C2CC3(CC2C1=O)OCCCO3 (centres unmarked) [I-c-35]	70	100	100	100	100	100	100		80	70
Cc1cc(C)c(C2=C(OC(=O)C(C)C)C3CC4(CC3C2=O)OCC=CCO4)c(C)c1 (centres unmarked) [I-b-42]	70	100	100	100	100	80	100	60		90
Cc1cc(C)c(C2=C(O)C3CC4(CC3C2=O)OCC=CCO4)c(C)c1 (centres unmarked) [I-a-41]	60	100	90	100	100	40	100	50	60	
CCc1cc(C)cc(C)c1C1=C(OC(=O)C(C)C)C2CC3(CC2C1=O)OCCCCO3 (centres unmarked) [I-b-77]	40	100	100	100	90	60	90		60	60
C=C1CC2C(=O)C(c3c(C)cc(C)cc3OC)=C([O-])C2C1.[Na+] (centres unmarked) [I-f-22]	70	80	100	30	100	40	80		80	100
CCc1cc(C)cc(CC)c1C1=C(O)[C@H]2CC(=NOC3CC3)C[C@H]2C1=O (relative stereo) [I-a-30]	0	90	100	90	50	0	70		80	70
CCc1cc(C)cc(CC)c1C1=C(OC(=O)C(C)C)C2CC3(CC2C1=O)OC(C)CC(C)O3 (centres unmarked) [I-b-15]	50	100	100	100	100	90	80	100	80	
CCOC(=O)OC1=C(c2c(CC)cc(C)cc2CC)C(=O)C2CC3(CC12)OCC(OCc1ccccc1)CO3 (centres unmarked) [I-c-28]	60	100	100	100	100	100		100	90	50
CCc1cc(C)cc(CC)c1C1=C(OC(=O)C(C)(C)C)C2CC3(CC2C1=O)OCCCO3 (centres unmarked) [I-b-27]	70	100	100	100	100	100	100	100		70
CCc1cc(C)cc(CC)c1C1=C(OC(=O)C(C)C)C2CC3(CC2C1=O)OCCCO3 (centres unmarked) [I-b-29]	70	100	100	100	100	90	100	100		80
